Data from patent US20230241060A1, “GLUCOCORTICOID-SPARING AGENT” (METRIOPHARM AG, priority 2020, published 2023).
Where “and” joins values, the source holds several entries; their conditions need not be identical. Identical values can stand only once. Like-named read-outs stand apart in the source and are kept apart here.

Tests used:
[1] = Schumann et al. 2020; cited from earlier work
[2] = Case report rheumatoid arthritis; format: in vivo, human; conditions: person, 10 mg prednisone retard tablets once daily
Source text: A person was diagnosed with rheumatoid arthritis a few months after experiencing first symptoms.

[3] = test system: IL-6 production, LPS stimulated RAW264.7 cells; test: IL-6 levels (ELISA) in supernatants of LPS stimulated RAW264.7 cells; format: cell-based, mouse
Method: Raw264.7 cells (leukemia transformed monocytic-macrophage cell line derived from mouse ascitic fluid) were grown in Dulbecco's Modified Eagle's Medium enriched with glutamine and fetal calf serum and maintained at 37° C. and 5% CO2.
Two experimental parts were performed.

[4] = Body weight in pilot study of collagen induced arthritis (CIA) in mice; conditions: MP1032 1 mg/kg/day alone, intraperitoneally

Nc1cccc2c(=O)[nH][nH]c(=O)c12
tolerability [1]: well tolerated

C[C@]12C=CC(=O)C=C1CC[C@@H]1[C@@H]2C(=O)C[C@@]2(C)[C@H]1CC[C@]2(O)C(=O)CO [prednisone]
pain and inflammation ([2]; rheumatoid arthritis, within months): improved
body weight [2]: started to gain weight

C[C@@H]1C[C@H]2[C@@H]3CCC4=CC(=O)C=C[C@]4(C)[C@@]3(F)[C@@H](O)C[C@]2(C)[C@@]1(O)C(=O)CO [Dexamethasone, dexamethasone, reference compound]
Percentage inhibition of IL-6 production ([3]; Exp Part 1, dexamethasone 0.01 μM alone): 34.66%
inhibition at 0.01 µM ([3]; Mus musculus, RAW264.7, Exp Part 1, dexamethasone 0.01 μM alone, read-out: Percentage inhibition of IL-6 production): 34.7%
inhibition at 0.1 µM ([3]; Mus musculus, RAW264.7, Exp Part 1, dexamethasone 0.1 μM alone, read-out: Percentage inhibition of IL-6 production): 63.8%
inhibition at 1 µM ([3]; Mus musculus, RAW264.7, Exp Part 1, dexamethasone 1 μM alone, read-out: Percentage inhibition of IL-6 production): 87%
inhibition at 0.0003 µM ([3]; Mus musculus, RAW264.7, Exp Part 2, dexamethasone 0.0003 μM alone, read-out: Percentage inhibition of IL-6 production): 1.57%
inhibition at 0.0006 µM ([3]; Mus musculus, RAW264.7, Exp Part 2, dexamethasone 0.0006 μM alone, read-out: Percentage inhibition of IL-6 production): 4.07%
inhibition at 0.0012 µM ([3]; Mus musculus, RAW264.7, Exp Part 2, dexamethasone 0.0012 μM alone, read-out: Percentage inhibition of IL-6 production): 0%
inhibition at 0.0025 µM ([3]; Mus musculus, RAW264.7, Exp Part 2, dexamethasone 0.0025 μM alone, read-out: Percentage inhibition of IL-6 production): 4.16%
inhibition at 0.005 µM ([3]; Mus musculus, RAW264.7, Exp Part 2, dexamethasone 0.005 μM alone, read-out: Percentage inhibition of IL-6 production): 30.6%
inhibition at 0.01 µM ([3]; Mus musculus, RAW264.7, Exp Part 2, dexamethasone 0.01 μM alone, read-out: Percentage inhibition of IL-6 production): 36.3%

Nc1cccc2c(=O)[nH][nH]c(=O)c12.[Na]
Percentage inhibition of IL-6 production ([3]; Exp Part 1, MP1032 0.025 mM alone, sodium salt): 17% and 17.03%
Percentage inhibition of IL-6 production ([3]; Exp Part 1, MP1032 0.05 mM alone, sodium salt): 25.8% and 25.77%
Percentage inhibition of IL-6 production ([3]; Exp Part 1, MP1032 0.1 mM alone): 44.85%
Percentage inhibition of IL-6 production ([3]; Exp Part 1, MP1032 0.25 mM alone): 53.95%
Percentage inhibition of IL-6 production ([3]; Exp Part 1, MP1032 0.5 mM alone): 56.70%
Percentage inhibition of IL-6 production ([3]; Exp Part 1, MP1032 1 mM alone): 72.75%
Percentage inhibition of IL-6 production ([3]; Exp Part 2, MP1032 0.025 mM alone): 1.57%
Percentage inhibition of IL-6 production ([3]; Exp Part 2, MP1032 0.05 mM alone): 0%
Percentage inhibition of IL-6 production ([3]; Exp Part 2, MP1032 0.1 mM alone): 0%
Percentage inhibition of IL-6 production ([3]; Exp Part 2, MP1032 0.25 mM alone): 13.85%
Percentage inhibition of IL-6 production ([3]; Exp Part 2, MP1032 0.5 mM alone): 47.52%
Percentage inhibition of IL-6 production ([3]; Exp Part 2, MP1032 1 mM alone): 67.30%
Body weight on day 45, median [4]: (23.6, n = 11) g
